pIC50: −log10 of the molar value. “And” between values parts separate entries of the source, which are not always exact repeats. Equal entries are not always repeated.

Common to all, as to format: biochemical
In one assay the target is DPP4 (Homo sapiens, UniProt P27487). Description: DPP4 inhibition, fluorogenic substrate H-Gly-Pro-AMC. The conditions noted are these: recombinant human DPP4. Details: purchased R&D Systems.
The next assay concerns the target T1, recombinant human DPP9 (Homo sapiens, UniProt Q86TI2).
T1 construct: purchased R&D Systems
Description: DPP9 inhibition, fluorogenic substrate H-Gly-Pro-AMC. The conditions noted are these: recombinant human DPP9. The gist of the method: (§1)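 Enzyme per reaction: 50 ng DPP9, 20 ng DPP8, 10 ng each DPP7 and PREP. Compounds were serially diluted (8 points, up to 0.5% DMSO) and incubated at 25 °C.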

A further assay has as its target T2, recombinant human PREP (Homo sapiens, UniProt P48147).
T2 construct: purchased R&D System
T2 sequence (P48147 1-710): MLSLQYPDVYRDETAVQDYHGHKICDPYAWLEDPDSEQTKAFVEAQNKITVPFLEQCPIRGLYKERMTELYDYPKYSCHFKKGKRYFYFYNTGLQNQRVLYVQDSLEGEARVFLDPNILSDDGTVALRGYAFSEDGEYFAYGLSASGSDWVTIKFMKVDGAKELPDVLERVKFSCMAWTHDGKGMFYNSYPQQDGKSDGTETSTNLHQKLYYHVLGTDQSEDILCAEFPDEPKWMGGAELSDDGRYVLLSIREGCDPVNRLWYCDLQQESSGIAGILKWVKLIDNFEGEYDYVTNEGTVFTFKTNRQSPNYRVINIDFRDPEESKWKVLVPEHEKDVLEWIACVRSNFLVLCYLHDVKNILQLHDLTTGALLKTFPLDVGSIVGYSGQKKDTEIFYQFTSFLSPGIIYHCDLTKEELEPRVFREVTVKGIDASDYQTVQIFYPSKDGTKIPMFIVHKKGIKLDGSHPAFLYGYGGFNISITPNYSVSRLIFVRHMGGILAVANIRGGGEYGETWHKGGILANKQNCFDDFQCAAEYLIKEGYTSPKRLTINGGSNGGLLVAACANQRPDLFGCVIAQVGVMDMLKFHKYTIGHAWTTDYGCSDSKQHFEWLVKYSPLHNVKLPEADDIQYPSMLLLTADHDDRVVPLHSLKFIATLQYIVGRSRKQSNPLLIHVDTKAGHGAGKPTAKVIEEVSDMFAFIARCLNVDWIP
Description: PREP inhibition, fluorogenic substrate Z-Gly-Pro-AMC. The conditions noted are these: Inhibitory Activity (IC50, nM) PREP, recombinant human PREP. The gist of the method: as §1

In another assay the target is T3, recombinant human DPP8 (Homo sapiens, UniProt Q6V1X1).
T3 construct: purchased PBS Bioscience
T3 sequence (Q6V1X1 whole entry): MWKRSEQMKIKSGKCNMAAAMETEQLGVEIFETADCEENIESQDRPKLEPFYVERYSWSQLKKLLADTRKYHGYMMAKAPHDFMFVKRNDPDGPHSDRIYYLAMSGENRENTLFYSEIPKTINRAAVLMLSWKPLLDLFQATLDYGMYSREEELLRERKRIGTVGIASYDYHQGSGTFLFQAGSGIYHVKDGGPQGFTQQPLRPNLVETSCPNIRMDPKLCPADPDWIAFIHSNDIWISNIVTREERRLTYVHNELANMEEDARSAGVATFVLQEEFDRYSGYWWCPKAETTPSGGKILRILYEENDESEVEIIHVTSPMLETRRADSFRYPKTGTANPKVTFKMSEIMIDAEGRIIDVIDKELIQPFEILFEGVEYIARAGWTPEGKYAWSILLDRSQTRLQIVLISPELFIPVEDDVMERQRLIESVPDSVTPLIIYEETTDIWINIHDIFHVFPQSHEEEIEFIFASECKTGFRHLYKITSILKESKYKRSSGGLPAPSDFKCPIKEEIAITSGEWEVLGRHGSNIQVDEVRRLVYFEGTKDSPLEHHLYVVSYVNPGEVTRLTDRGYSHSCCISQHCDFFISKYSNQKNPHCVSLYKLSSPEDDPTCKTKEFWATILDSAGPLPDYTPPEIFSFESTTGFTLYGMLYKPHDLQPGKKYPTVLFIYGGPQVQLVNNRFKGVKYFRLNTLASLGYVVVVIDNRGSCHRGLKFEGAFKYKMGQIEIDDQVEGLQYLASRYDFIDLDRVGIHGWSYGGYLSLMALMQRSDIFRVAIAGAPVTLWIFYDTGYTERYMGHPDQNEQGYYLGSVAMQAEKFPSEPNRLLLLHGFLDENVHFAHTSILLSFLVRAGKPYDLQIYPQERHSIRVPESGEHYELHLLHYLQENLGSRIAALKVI
The experiment in a line: DPP8 inhibition, fluorogenic substrate Z-Ala-Pro-AMC. As to conditions: recombinant human DPP8. In short, it runs like this:
as §1

T1 sequence (Q86TI2 whole entry): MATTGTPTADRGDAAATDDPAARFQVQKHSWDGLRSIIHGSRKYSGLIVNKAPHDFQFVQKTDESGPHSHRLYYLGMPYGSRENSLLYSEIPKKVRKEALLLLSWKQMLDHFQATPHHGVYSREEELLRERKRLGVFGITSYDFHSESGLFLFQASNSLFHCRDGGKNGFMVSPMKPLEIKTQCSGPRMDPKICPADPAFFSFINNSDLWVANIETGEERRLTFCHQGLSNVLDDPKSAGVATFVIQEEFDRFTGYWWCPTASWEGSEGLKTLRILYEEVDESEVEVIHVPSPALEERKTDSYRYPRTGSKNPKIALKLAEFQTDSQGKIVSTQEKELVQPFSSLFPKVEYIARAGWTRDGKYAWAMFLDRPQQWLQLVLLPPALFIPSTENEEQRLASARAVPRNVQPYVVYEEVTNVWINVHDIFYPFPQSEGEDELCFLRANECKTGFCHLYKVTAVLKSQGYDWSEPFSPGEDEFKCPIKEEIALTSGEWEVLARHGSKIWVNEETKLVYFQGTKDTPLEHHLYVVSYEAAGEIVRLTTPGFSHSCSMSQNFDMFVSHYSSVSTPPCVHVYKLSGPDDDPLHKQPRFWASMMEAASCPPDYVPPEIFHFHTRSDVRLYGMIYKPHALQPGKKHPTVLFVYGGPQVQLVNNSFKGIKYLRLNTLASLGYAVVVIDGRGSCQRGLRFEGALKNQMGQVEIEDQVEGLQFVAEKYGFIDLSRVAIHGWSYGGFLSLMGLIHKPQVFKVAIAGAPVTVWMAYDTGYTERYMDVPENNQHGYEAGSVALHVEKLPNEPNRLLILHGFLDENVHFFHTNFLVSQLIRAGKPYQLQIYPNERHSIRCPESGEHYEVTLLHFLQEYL
Chain of DPP4 (P27487 whole entry): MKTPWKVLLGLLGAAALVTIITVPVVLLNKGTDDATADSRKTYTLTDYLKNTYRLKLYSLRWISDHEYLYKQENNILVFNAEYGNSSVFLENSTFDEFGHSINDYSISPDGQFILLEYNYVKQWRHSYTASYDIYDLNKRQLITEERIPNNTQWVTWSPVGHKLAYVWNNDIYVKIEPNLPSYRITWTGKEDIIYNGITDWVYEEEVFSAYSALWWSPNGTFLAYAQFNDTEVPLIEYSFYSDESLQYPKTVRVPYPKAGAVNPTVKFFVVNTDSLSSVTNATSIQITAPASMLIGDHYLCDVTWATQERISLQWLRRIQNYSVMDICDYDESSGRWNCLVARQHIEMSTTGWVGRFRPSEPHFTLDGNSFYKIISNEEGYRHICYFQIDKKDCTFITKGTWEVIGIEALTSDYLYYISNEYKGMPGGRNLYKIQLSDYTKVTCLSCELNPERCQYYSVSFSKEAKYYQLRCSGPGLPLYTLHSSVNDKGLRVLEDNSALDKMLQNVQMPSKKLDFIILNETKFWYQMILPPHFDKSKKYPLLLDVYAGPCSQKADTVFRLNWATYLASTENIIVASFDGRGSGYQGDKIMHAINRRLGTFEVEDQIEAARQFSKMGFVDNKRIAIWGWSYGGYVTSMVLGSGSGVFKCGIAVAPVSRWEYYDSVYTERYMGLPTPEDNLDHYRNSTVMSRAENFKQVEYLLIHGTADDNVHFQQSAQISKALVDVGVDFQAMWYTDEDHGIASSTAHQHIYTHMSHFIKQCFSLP

By pIC50 is commonly meant the IC50 on a negative log10 scale, so that one unit is a factor of ten. In general, IC50 refers to the concentration at which inhibition is half-maximal. As for `N#C[C@@H]1C[C@H](F)CN1C(=O)CN1CC[C@H](Nc2cccc3ncccc23)C1` [Example 228, (2S,4S)-4-fluoro-1-[2-[(3S)-3-(5-quinolylamino)pyrrolidin-1-yl]acetyl]pyrrolidine-2-carbonitrile], the pIC50 on DPP4 was under 4.00; on recombinant human DPP9 it was 5.13; at recombinant human DPP8, 4.97. The IC50 on recombinant human PREP worked out at 4290 nM.

`N#C[C@@H]1C[C@H](F)CN1C(=O)CN1CC[C@H](Nc2cccc3ncc(F)cc23)C1` [Example 255, (2S,4S)-4-fluoro-1-[2-[(3S)-3-[(3-fluoro-5-quinolyl)amino]pyrrolidin-1-yl]acetyl]pyrrolidine-2-carbonitrile]: the negative logarithm of the IC50 (pIC50) was 5.62 on DPP4, 5.13 on recombinant human DPP9 and 5.29 at recombinant human DPP8. For the same molecule, the IC50 at recombinant human PREP came out at 2210 nM.

With `COc1cnc2cccc(N[C@H]3CCN(CC(=O)N4CCC[C@H]4C#N)C3)c2c1` [Example 233, (2S)-1-[2-[(3S)-3-[(3-methoxy-5-quinolyl)amino]pyrrolidin-1-yl]acetyl]pyrrolidine-2-carbonitrile], the results for the pIC50 on DPP4, at recombinant human DPP9 and on recombinant human DPP8 were 4.42, 4.67 and 4.55, respectively. Besides, at recombinant human PREP, the IC50 is 11500 nM.

Take `N#Cc1ccc(N[C@H]2CCN(CC(=O)N3CCC[C@H]3C#N)C2)c2cccnc12` [Example 247, 5-[[(3S)-1-[2-oxo-2-[(2S)-2-cyanopyrrolidin-1-yl]ethyl]pyrrolidin-3-yl]amino]quinoline-8-carbonitrile]: the pIC50 is under 5.00 on DPP4, under 4.00 on recombinant human DPP9 and under 4.00 at recombinant human DPP8. On recombinant human PREP, the IC50 is over 10000 nM.

Take `N#C[C@@H]1C[C@H](F)CN1C(=O)CN1CCC(Nc2ccc(OC(F)(F)F)c3ncccc23)CC1` [Example 347, (2S,4S)-4-fluoro-1-[2-[4-[[8-(trifluoromethoxy)-5-quinolyl]amino]-1-piperidyl]acetyl]pyrrolidine-2-carbonitrile]: the values for the pIC50 at DPP4, at recombinant human DPP9 and at recombinant human DPP8 were 5.58, 5.53 and 5.58, respectively. Further, the IC50 on recombinant human PREP was 4580 nM.

In the case of `Cc1ccc2nccc(OC3CCN(CC(=O)N4C[C@@H](F)C[C@H]4C#N)CC3)c2c1` [Example 410, (2S,4S)-4-fluoro-1-[2-[4-[(6-methyl-4-quinolyl)oxy]-1-piperidyl]acetyl]pyrrolidine-2-carbonitrile], the pIC50 is under 5.00 at DPP4, 4.75 on recombinant human DPP9 and 4.97 at recombinant human DPP8. Also, on recombinant human PREP, the IC50 worked out at 3170 nM.

Turning to `N#C[C@@H]1C[C@H](F)CN1C(=O)CN1CCC(Nc2cccc3cnc(Cl)cc23)CC1` [Example 352, (2S,4S)-1-[2-[4-[(3-chloro-5-isoquinolyl)amino]-1-piperidyl]acetyl]-4-fluoro-pyrrolidine-2-carbonitrile], the pIC50 at DPP4 is under 5.00; at recombinant human DPP9, 5.01; at recombinant human DPP8, under 5.00. Besides, the IC50 on recombinant human PREP stood at 10700 nM.

Take `N#C[C@@H]1C[C@H](F)CN1C(=O)CN1CCC(Nc2ccc(C(F)(F)F)c3ncccc23)CC1` [Example 334, (2S,4S)-4-fluoro-1-[2-[4-[[8-(trifluoromethyl)-5-quinolyl]amino]-1-piperidyl]acetyl]pyrrolidine-2-carbonitrile]: the pIC50 at DPP4 was 5.11; on recombinant human DPP9, 5.96. Further, the IC50 on recombinant human PREP was 2300 nM and 2780 nM.

As to `N#Cc1cnc2cccc(N[C@H]3CCN(CC(=O)N4CCC[C@H]4C#N)C3)c2c1` [Example 232, 5-[[(3S)-1-[2-oxo-2-[(2S)-2-cyanopyrrolidin-1-yl]ethyl]pyrrolidin-3-yl]amino]quinoline-3-carbonitrile], the results for the negative logarithm of the IC50 (pIC50) on DPP4, on recombinant human DPP9 and at recombinant human DPP8 were under 5.00, 4.54 and under 4.00, respectively. Further, the IC50 on recombinant human PREP was 13700 nM.

As to `N#C[C@@H]1CCCN1C(=O)CN1CC[C@H](Nc2ccc(C(F)(F)F)c3ncccc23)C1` [Example 245, (2S)-1-[2-[(3S)-3-[[8-(trifluoromethyl)-5-quinolyl]amino]pyrrolidin-1-yl]acetyl]pyrrolidine-2-carbonitrile], the pIC50 at DPP4 is under 5.00; on recombinant human DPP9, under 4.00; on recombinant human DPP8, under 4.00. The IC50 at recombinant human PREP is 9470 nM.

Turning to `COc1ccc(N[C@H]2CCN(CC(=O)N3C[C@@H](F)C[C@H]3C#N)C2)c2cccnc12` [Example 263, (2S,4S)-4-fluoro-1-[2-[(3S)-3-[(8-methoxy-5-quinolyl)amino]pyrrolidin-1-yl]acetyl]pyrrolidine-2-carbonitrile], the negative logarithm of the IC50 (pIC50) at DPP4 was 6.10; on recombinant human DPP9, 5.42; on recombinant human DPP8 it was 5.45. Besides, on recombinant human PREP, the IC50 was 3470 nM.

With `N#C[C@@H]1C[C@H](F)CN1C(=O)CN1CC[C@H](Nc2ccc(OC(F)(F)F)c3ncccc23)C1` [Example 266, (2S,4S)-4-fluoro-1-[2-[(3S)-3-[[8-(trifluoromethoxy)-5-quinolyl]amino]pyrrolidin-1-yl]acetyl]pyrrolidine-2-carbonitrile], the pIC50 on DPP4 was 5.88; on recombinant human DPP9 it was 5.36; on recombinant human DPP8 it was under 5.00. In addition, the IC50 at recombinant human PREP amounted to 3170 nM.

For the molecule `N#C[C@@H]1C[C@H](F)CN1C(=O)CN1CC[C@H](Nc2ccc(OCc3ccccc3)c3ncccc23)C1` [Example 268, (2S,4S)-4-fluoro-1-[2-[(3S)-3-[(8-benzyloxy-5-quinolyl)amino]pyrrolidin-1-yl]acetyl]pyrrolidine-2-carbonitrile], the pIC50 on DPP4 was 6.24; on recombinant human DPP9, 6.06; on recombinant human DPP8, 5.96. Further, at recombinant human PREP, the IC50 was determined as 3520 nM.

Turning to `N#C[C@@H]1CCCN1C(=O)CN1CC[C@H](Nc2ccc(F)c3ncccc23)C1` [Example 244, (2S)-1-[2-[(3S)-3-[(8-fluoro-5-quinolyl)amino]pyrrolidin-1-yl]acetyl]pyrrolidine-2-carbonitrile], the pIC50 on DPP4 was under 5.00; on recombinant human DPP9, 4.50; on recombinant human DPP8, 4.49. In addition, on recombinant human PREP, the IC50 was 11100 nM.

With `COc1cnc2cccc(NC3CCN(CC(=O)N4C[C@@H](F)C[C@H]4C#N)CC3)c2c1` [Example 348, (2S,4S)-4-fluoro-1-[2-[4-[(3-methoxy-5-quinolyl)amino]-1-piperidyl]acetyl]pyrrolidine-2-carbonitrile], the figures for the pIC50 on DPP4, on recombinant human DPP9 and on recombinant human DPP8 were 5.44, 5.21 and 5.61, respectively. Further, the IC50 at recombinant human PREP was 10000 nM.

With `N#C[C@@H]1C[C@H](F)CN1C(=O)CN1CCC(Nc2cccc3ncc(F)cc23)CC1` [Example 349, (2S,4S)-4-fluoro-1-[2-[4-[(3-fluoro-5-quinolyl)amino]-1-piperidyl]acetyl]pyrrolidine-2-carbonitrile], the pIC50 at DPP4 is 5.72; on recombinant human DPP9 it was 5.30; on recombinant human DPP8 it was 5.54. At recombinant human PREP, the IC50 was 5200 nM.

For the molecule `COc1cc2c(NC3CCN(CC(=O)N4C[C@@H](F)C[C@H]4C#N)CC3)cccc2cn1` [Example 355, (2S,4S)-4-fluoro-1-[2-[4-[(3-methoxy-5-isoquinolyl)amino]-1-piperidyl]acetyl]pyrrolidine-2-carbonitrile], the pIC50 on DPP4 is 5.28; at recombinant human DPP9, 5.01; on recombinant human DPP8, under 4.00. Moreover, at recombinant human PREP, the IC50 turned out to be 14200 nM.

For the origin of these results see patent US11655235B2, “Pyrrolidine and piperidine compounds” (YUHAN CORPORATION, priority 2019, dated 2023).
